Data: ChEMBL document CHEMBL6096669, “Design and synthesis of novel derivatives of bisepoxylignans as potent anti-inflammatory agents involves the modulation of the M1/M2 microglia phenotype via TLR4/NF-κB signaling pathway” (Eur J Med Chem, 2025)
Calls of active or inactive are those of the source. The rule behind the calls is not given here.

Key:
[1] = AUCall in rat at 20 mg/kg, po single dose; type: ADME, organism-based; conditions: in vivo
BV-2 [2] = assay: Anti-inflammatory activity against LPS-induced mouse BV-2 cells assessed as decrease in LPS-induced Cyclooxygenase-2 production at 5 uM incubated for 4 hrs followed by LPS induced for 24 hrs by Western blotting analysis; type: functional, cell-based
Mus musculus [3] = assay: (§1) Anti-neuroinflammatory activity against LPS-induced male C57BL/6 mouse assessed as suppression of LPS-induced microglial activation by measuring decrease in IBA1 fluorescence intensity at 20 mg/kg, po administered for 3 days followed by induced with LPS by tail vein injection by immunofluorescence staining based assay; type: functional, organism-based; conditions: time 3.0 day
[4] = Biodistribution in C57BL/6 mouse lung at 20 mg/kg, IG measured after 15 mins; type: ADME, organism-based; conditions: in vivo, po, 0.25 h
[5] = Inhibition of LPS-induced NO production in mouse BV-2 cells at 10 uM measured after 24 hrs followed by induced with LPS for another 24 hrs by ELISA relative to control; type: functional
Mus musculus [6] = assay: Anti-neuroinflammatory activity against LPS-induced male C57BL/6 mouse assessed as suppression of LPS-induced p-IkappaB-alpha protein level at 20 mg/kg, po administered for 3 days followed by induced with LPS by tail vein injection by Western blot analysis; type: functional, organism-based; conditions: time 3.0 day
BV-2 [7] = assay: Anti-inflammatory activity against LPS-induced mouse BV-2 cells assessed as decrease in LPS-induced TNFalpha production at 5 to 10 uM incubated for 4 hrs followed by LPS induced for 24 hrs by Western blotting analysis; type: functional, cell-based; conditions: dose 5-10 µM
[8] = MRT in rat at 20 mg/kg, po single dose; type: ADME, organism-based; conditions: in vivo
Mus musculus [9] = assay: Anti-neuroinflammatory activity against LPS-induced male C57BL/6 mouse assessed as suppression of LPS-induced neuronal damage by measuring increase in Nissl bodies at 20 mg/kg, po administered for 3 days followed by induced with LPS by tail vein injection; type: functional, organism-based; conditions: time 3.0 day
Mus musculus [10] = assay: Anti-neuroinflammatory activity against LPS-induced male C57BL/6 mouse assessed as suppression of LPS-induced TNF-alphamRNA level at 20 mg/kg, po administered for 3 days followed by induced with LPS by tail vein injection by RT-PCR analysis; type: functional, organism-based; conditions: time 3.0 day
Mus musculus [11] = assay: Anti-neuroinflammatory activity against LPS-induced male C57BL/6 mouse assessed as suppression of LPS-induced pathological changes in heart at 20 mg/kg, po administered for 3 days followed by induced with LPS by tail vein injection by hematoxylin-eosin staining based assay; type: functional, organism-based; conditions: time 3.0 day
[12] = Biodistribution in C57BL/6 mouse spleen at 20 mg/kg, IG measured after 15 mins; type: ADME, organism-based; conditions: in vivo, po, 0.25 h
Mus musculus [13] = assay: Anti-neuroinflammatory activity against LPS-induced male C57BL/6 mouse assessed as suppression of LPS-induced p-I-kappaB-alpha protein level at 10 mg/kg, po administered for 3 days followed by induced with LPS by tail vein injection by Western blot analysis; type: functional, organism-based; conditions: time 3.0 day
BV-2 [14] = assay: Anti-inflammatory activity against LPS-induced mouse BV-2 cells assessed as decrease in LPS-induced TNF-alpha mRNA expression at 10 to 20 uM incubated for 4 hrs followed by LPS induced for 12 hrs by RT-PCR analysis relative to control; type: functional, cell-based; conditions: dose 10-20 µM, time 16.0 hrs
[15] = Biodistribution in C57BL/6 mouse liver at 20 mg/kg, IG measured after 15 mins; type: ADME, organism-based; conditions: in vivo, po, 0.25 h
BV-2 [16] = assay: Anti-inflammatory activity against LPS-induced mouse BV-2 cells assessed as decrease in LPS-induced iNOS mRNA expression at 10 to 20 uM incubated for 4 hrs followed by LPS induced for 12 hrs by RT-PCR analysis relative to control; type: functional, cell-based; conditions: dose 10-20 µM, time 16.0 hrs
Mus musculus [17] = assay: Anti-neuroinflammatory activity against LPS-induced male C57BL/6 mouse assessed as suppression of LPS-induced pathological changes in kidney at 20 mg/kg, po administered for 3 days followed by induced with LPS by tail vein injection by hematoxylin-eosin staining based assay; type: functional, organism-based; conditions: time 3.0 day
[18] = Tmax in rat at 20 mg/kg, po single dose; type: ADME, organism-based; conditions: in vivo
Mus musculus [19] = assay: as §1, with “[…]” for “IBA1”; type: functional, organism-based; conditions: time 3.0 day
[20] = Ratio of AUC in brain to serum in rat at 20 mg/kg, po single dose; type: ADME, organism-based
[21] = Cytotoxicity against mouse BV-2 cells assessed as cell viability at 10 uM measured after 24 hrs by MTT assay relative to control; type: toxicity, cell-based; conditions: read-out: Activity
[22] = Half life in rat at 20 mg/kg, po single dose; type: ADME, organism-based; conditions: in vivo
Mus musculus [23] = assay: Anti-neuroinflammatory activity against LPS-induced male C57BL/6 mouse assessed as suppression of LPS-induced p-NF-kappaB protein level at 10 mg/kg, po administered for 3 days followed by induced with LPS by tail vein injection by Western blot analysis; type: functional, organism-based; conditions: time 3.0 day
BV-2 [24] = assay: Anti-inflammatory activity against LPS-induced mouse BV-2 cells assessed as decrease in LPS-induced TNF-alpha mRNA expression at 5 uM incubated for 4 hrs followed by LPS induced for 12 hrs by RT-PCR analysis relative to control; type: functional, cell-based; conditions: time 16.0 hrs
BV-2 [25] = assay: Anti-inflammatory activity against LPS-induced mouse BV-2 cells assessed as decrease in LPS-induced TLR4 production incubated for 4 hrs followed by LPS induced for 24 hrs by […]; type: functional, cell-based; conditions: dose 5-20 µM, time 28.0 hrs
BV-2 [26] = assay: Anti-inflammatory activity against LPS-induced mouse BV-2 cells assessed as decrease in LPS-induced IL-6 mRNA expression at 10 to 20 uM incubated for 4 hrs followed by LPS induced for 12 hrs by RT-PCR analysis relative to control; type: functional, cell-based; conditions: dose 10-20 µM, time 16.0 hrs
[27] = Cmax in rat at 20 mg/kg, po single dose; type: ADME, organism-based; conditions: in vivo
Mus musculus [28] = assay: Anti-neuroinflammatory activity against LPS-induced male C57BL/6 mouse assessed as suppression of LPS-induced p-NF-kappaB protein level at 20 mg/kg, po administered for 3 days followed by induced with LPS by tail vein injection by Western blot analysis; type: functional, organism-based; conditions: time 3.0 day
[29] = Acute toxicity in C57BL/6 mouse assessed as morphological changes in liver by measuring signs of inflammation at 500 mg/kg, po single dose measured on day 8 by H and E staining based assay; type: organism-based; conditions: in vivo, 192 h, time 8 day
BV-2 [30] = assay: Anti-inflammatory activity against LPS-induced mouse BV-2 cells assessed as decrease in LPS-induced Cyclooxygenase-2 mRNA expression at 5 to 20 uM incubated for 4 hrs followed by LPS induced for 12 hrs by RT-PCR analysis relative to control; type: functional, cell-based; conditions: dose 5-20 µM, time 16.0 hrs
BV-2 [31] = assay: Anti-inflammatory activity against LPS-induced mouse BV-2 cells assessed as decrease in LPS-induced iNOS mRNA expression at 5 uM incubated for 4 hrs followed by LPS induced for 12 hrs by RT-PCR analysis relative to control; type: functional, cell-based; conditions: time 16.0 hrs
BV-2 [32] = assay: Anti-inflammatory activity against LPS-induced mouse BV-2 cells assessed as decrease in LPS-induced Cyclooxygenase-2 mRNA expression at 20 uM incubated for 4 hrs followed by LPS induced for 12 hrs by RT-PCR analysis relative to control; type: functional, cell-based; conditions: time 16.0 hrs
Mus musculus [33] = assay: Anti-neuroinflammatory activity against LPS-induced male C57BL/6 mouse assessed as suppression of LPS-induced IL-6 mRNA level at 20 mg/kg, po administered for 3 days followed by induced with LPS by tail vein injection by RT-PCR analysis; type: functional, organism-based; conditions: time 3.0 day

For `O=c1[nH]c2ccc(Nc3ncnc4c3ccn4Cc3ccc(F)cc3)cc2[nH]1`, the AUC [1] was 43600 ng·h/mL, the Activity (BV-2 [2]) was “Not active; No Significant Effect Observed Vs Lps” and the Activity (Mus musculus [3]) was “Active”. The Drug uptake [4] was “Active”, the inhibition at 10 µM [5] was 95% and the Activity (Mus musculus [6]) was “Active”. The Activity (BV-2 [7]) was “Not active; No Significant Effect Observed Vs Lps”, the MRT [8] was 6.2 h and the Activity (Mus musculus [9]) was “Active”. For the same compound, the Activity (Mus musculus [10]) was “Active”, the Activity (Mus musculus [11]) was “Active; Decreased Lps-Induced Visceral Injury (Cell Morphology, Hemorrhage, And Neutrophil Infiltration) And Maintaining Normal Cell Shape And Arrangement And Enhancing Infiltration Of Inflammatory Cells” and the Drug uptake [12] was “Active”. The Activity (Mus musculus [13]) was “Not active; No Significant Effect Observed Vs Lps”, the Activity (BV-2 [14]) was “Active” and the Drug uptake [15] was “Active”. The Activity (BV-2 [16]) was “Active”, the Activity (Mus musculus [17]) was “Active; Decreased Lps-Induced Visceral Injury (Cell Morphology, Hemorrhage, And Neutrophil Infiltration) And Maintaining Normal Cell Shape And Arrangement And Enhancing Infiltration Of Inflammatory Cells” and the Tmax [18] was 1 h. For the same compound, the Activity (Mus musculus [19]) was “Active”, the Ratio [20] was 1.9% and the viability at 24 h, 10 µM [21] was 95.3%. For the same compound, the half-life [22] was 5.91 h, the Activity (Mus musculus [23]) was “Not active; No Significant Effect Observed Vs Lps” and the Activity (BV-2 [24]) was “Not active; No Significant Effect Observed Vs Lps”. For the same compound, the Activity (BV-2 [25]) was “Dose-dependent-effect”, the Activity (BV-2 [26]) was “Active” and the Cmax [27] was 7490 ng/mL. The Activity (Mus musculus [28]) was “Active”, the Activity [29] was “Non-toxic” and the Activity (BV-2 [30]) was “Active”. For the same compound, the Activity (BV-2 [31]) was “Not active; No Significant Effect Observed Vs Lps”, the Activity (BV-2 [32]) was “Active” and the Activity (Mus musculus [33]) was “Active”.
